US20260315494A1, “TREATMENT OF BREAST TISSUE” (Havah Therapeutics Pty Ltd, priority 2023, published 2026)
Where “and” joins values, the source holds several entries; their conditions need not be identical. Equal values may be shown once.

Tests used:
[1] = test system: endogenous AR pathways / ER-mediated transcriptional activity; conditions: human explant tissue and breast cancer cell lines; cited from earlier work
[2] = Single-dose pharmacokinetics of T+Ai pellet implant (80 mg testosterone + 4 mg anastrozole, subcutaneous); conditions: for concentration at 1 h: 1 h post-dose; for concentration at 2 h: 2 h post-dose; for concentration at 4 h: 4 h post-dose; for concentration at 8 h: 8 h post-dose; for concentration at 12 h: 12 h post-dose; for concentration at 24 h: 24 h post-dose; for concentration at 72 h: 72 h post-dose; for concentration at 1680 h: 1680 h post-dose; for concentration at 2016 h: 2016 h post-dose
Procedure: The premenopausal women were aged between 35 and 55 years of age with a BMI range of 20-30 kg/m^2. […] The implant was intended to be left in situ and was expected to be almost completely absorbed within three months following insertion.
A total of 11 subjects were dosed with the implant and included in the safety analysis set. All 11 subjects were included in the pharmacokinetics (PK) analysis set.
(NB: the sample collection time point at 6 hours post-dose was added for the third and subsequent subject and so serum measurements were not determined for the first two subjects as noted below).
Patients seeking treatment with the T+Ai for reduction in high MBD were eligible for the study. Following successful screening, subjects attended the Wellend Health Clinic for dosing. The trial was designed to dose all subjects while in the luteal phase of their menstrual cycle to avoid the highly changing hormonal environment of the follicular phase. Following insertion of the implant, PK blood sampling was carried out for a duration of three months (see below). Briefly, samples were taken repeatedly on the day of dosing, daily during the first week, weekly for the next four weeks and every second week during the last eight weeks of a total sampling period of three months.
The sampling schedule was revised with the addition of one blood sample (at 6 hours post-dose as discussed above), and no adjustment of the timing of existing time points was made. The duration of sampling was not extended.
Following dosing on Day 1, blood samples were taken pre-dose (within one hour of dosing) and at 1, 2, 4, 6, 8 and 12 hours. Participants returned for a blood sample to be taken at 9 am in the morning on Days 2, 3, 4, 5, 8, 15, 22, 29, 43, 57, 71 and 85.

androgen receptor (AR) = conditions: tumoural DHT from 1 nM up to 10 nM, Hickey 2021; cited from earlier work
aromatase = conditions: increasing DHT in the breast, Perel; cited from earlier work
PCa cells = conditions: cited from earlier work
AR/GATA3 = conditions: Hosseinzadeh 2024; cited from earlier work
5α-reductase = conditions: increasing DHT in the breast, McNamara 2014; cited from earlier work
human mTOR = experiment: Western blot of mTOR in breast cancer explants treated with DHT; assay type: cell-based; conditions: for mTOR Western blot ratio to beta-Actin, average: average of 3 patients; for mTOR Western blot ratio to beta-Actin, average / mTOR Western blot ratio to beta-Actin: 5 nM anastrozole, 24 h; for mTOR Western blot ratio to beta-Actin: individual patient
Procedure: (§1) To evaluate the effect of DHT on breast cancer tissue, 3 primary tumours were examined in the presence of a low anastrozole level of 5 nM employing a modification of the method described by Jankovic-Karasoulos T. et al., 2008.
(§2) The 3 explant invasive breast carcinomas were examined for expression of mTOR and c-Myc and response to exposure to DHT by Western blotting. […] The band density was measured by densitometry, using Image Master VDS and Image Quant Analysis Software (Amersham Pharmacia Biotech, Hong Kong). The relative protein levels of mTOR or MYC and b-actin in the original total protein lysate from the breast preparations were obtained. mTOR or MYC protein expression was normalized to beta-actin protein expression. Immunizing host antibodies were produced with a synthetic peptide derived from the sequence of human mTOR or MYC, purified by peptide affinity chromatography and confirmed using control peptides. The results of the Western blot analysis for mTOR or MYC proteins in the 3 explant samples at baseline and after 24 hours of culture are shown in Table 3 and Table 4 for mTOR or MYC respectively. Cell lysates were immunoblotted with antibodies to mTOR or MYC. The experiment was performed twice with similar results. Data are expressed relative to beta-actin.

human MYC = experiment: Western blot of MYC in breast cancer explants treated with DHT; assay type: cell-based; conditions: for MYC Western blot ratio to beta-Actin / MYC Western blot ratio to beta-Actin, average: 24 h
Procedure: as §1, §2

CRPC = conditions: with a CDK4/6 inhibitor, Han 2022; cited from earlier work
breast tissue = conditions: high dose androgen (testosterone), Raths 2023; cited from earlier work
breast = conditions: injected prior to breast cancer surgery; cited from earlier work
[3] = on the basis of the present results
[4] = human, in vivo, sc, 80 mg, Measured serum testosterone, GeoMean, geometric mean
[5] = human, in vivo, sc, 80 mg, Measured serum testosterone, mean
[6] = human, in vivo, sc, 80 mg, Measured serum testosterone, median

C[C@]12CCC(=O)C[C@@H]1CC[C@@H]1[C@@H]2CC[C@]2(C)[C@@H](O)CC[C@@H]12 [DHT, 5α-dihydrotestosterone]
ER-mediated transcriptional activity [1]: can activate endogenous AR pathways to inhibit ER-mediated transcriptional activity | serum DHT ([2]; most samples): not measurable in most samples | AR tumour suppressor induction (androgen receptor (AR)): can induce androgen receptor (AR) to become a tumour suppressor of estrogen receptor (ER) positive breast cancer | aromatase in breast tissue (aromatase): down regulation of aromatase | c-Myc expression associated with AR dimer (PCa cells; elevated DHT levels): reduction in c-Myc expression | mTOR activity associated with AR monomer (PCa cells; low level DHT): elevated mTOR activity | AR/GATA3 binding (AR/GATA3): induces AR/GATA3 binding | 5α-reductase in breast tissue (5α-reductase): up regulation of 5α-reductase | mTOR expression in words (human mTOR; 0.1 nM DHT): markedly elevated | mTOR Western blot ratio to beta-Actin, average (human mTOR; 0.1 nM DHT): 1.01 | mTOR Western blot ratio to beta-Actin (human mTOR; 0.1 nM DHT): 0.81 and 1.01 and 1.23 | mTOR expression in words (human mTOR; 1 nM DHT): barely discernable | mTOR Western blot ratio to beta-Actin, average (human mTOR; 1 nM DHT): 0.04 | mTOR Western blot ratio to beta-Actin (human mTOR; 1 nM DHT): 0.04 and 0.02 and 0.06 | mTOR expression in words (human mTOR; 10 nM DHT): essentially not detected | mTOR Western blot ratio to beta-Actin, average (human mTOR; 10 nM DHT): 0.04 | mTOR Western blot ratio to beta-Actin (human mTOR; 10 nM DHT): 0.03 and 0.05 and 0.04 | DHT concentration required to inhibit induction of mTOR activity (human mTOR; [3]): at least 1 nM | Myc expression in words (human MYC; 0.1 nM DHT): markedly elevated | suppression of c-Myc (human MYC; 0.1 nM DHT): unable to suppress c-Myc | MYC Western blot ratio to beta-Actin (human MYC; 0.1 nM DHT, individual patient, 5 nM anastrozole): 1.01 and 1.23 | Myc expression in words (human MYC; 1 nM DHT): barely discernable | MYC Western blot ratio to beta-Actin (human MYC; 1 nM DHT, individual patient, 5 nM anastrozole): 0.02 and 0.06 | Myc expression in words (human MYC; 10 nM DHT): essentially not detected | MYC Western blot ratio to beta-Actin (human MYC; 10 nM DHT, individual patient, 5 nM anastrozole): 0.05 and 0.04 | MYC Western blot ratio to beta-Actin (human MYC; 0.0001 µM): 0.39 | MYC Western blot ratio to beta-Actin, average (human MYC; 0.0001 µM): 1.01 | MYC Western blot ratio to beta-Actin (human MYC; 0.001 µM): 0.04 | MYC Western blot ratio to beta-Actin, average (human MYC; 0.001 µM): 0.04 | MYC Western blot ratio to beta-Actin (human MYC; 0.01 µM): 0.03 | MYC Western blot ratio to beta-Actin, average (human MYC; 0.01 µM): 0.04 | suppression of c-Myc (human MYC; intra-tumoural DHT from 1 to 10 nM): results in suppression of c-Myc | DHT concentration required for suppression of cMyc (human MYC; [3]): at least 1 nM

C[C@]12CC[C@H]3[C@@H](CCC4=CC(=O)CC[C@@]43C)[C@@H]1CC[C@@H]2O [Testosterone, testosterone]
average serum testosterone concentration at 12 weeks ([2]; 12 weeks post-dose, 120960 min): 0.8 ng/mL | increase in serum testosterone compared with baseline ([2]; all subjects, 12 weeks): sustained in all subjects at 12 weeks | average serum testosterone at baseline ([2]; baseline, before implant): 0.2 ng/mL | Measured serum testosterone, GeoMean ([2]; geometric mean, pre-dose): 0.19 ng/mL | Tmax ([2]; human, in vivo, sc, 80 mg): 6 to 12 h | concentration at 1 h [2, 4]: 0.49 ng/mL | concentration at 2 h [2, 4]: 0.6 ng/mL | concentration at 4 h [2, 4]: 0.94 ng/mL | concentration at 6 h ([2]; human, in vivo, sc, 80 mg, Measured serum testosterone, GeoMean, geometric mean, 6 h post-dose): 2.53 ng/mL | concentration at 8 h [2, 4]: 3.29 ng/mL | concentration at 12 h [2, 4]: 3.36 ng/mL | concentration at 24 h [2, 4]: 2.39 ng/mL | concentration at 72 h [2, 4]: 1.63 ng/mL | concentration at 1680 h [2, 4]: 0.99 ng/mL | concentration at 1680 h ([2]; human, in vivo, sc, 80 mg, Measured serum testosterone, individual subject): 0.791 ng/mL | concentration at 1 h [2, 5]: 0.55 ng/mL | concentration at 2 h [2, 5]: 0.73 ng/mL | concentration at 4 h [2, 5]: 1.43 ng/mL | concentration at 8 h [2, 5]: 3.55 ng/mL | concentration at 12 h [2, 5]: 3.43 ng/mL | concentration at 24 h [2, 5]: 2.45 ng/mL | concentration at 48 h ([2]; human, in vivo, sc, 80 mg, Measured serum testosterone, mean, 48 h post-dose): 1.83 ng/mL | concentration at 72 h [2, 5]: 1.73 ng/mL | concentration at 168 h ([2]; human, in vivo, sc, 80 mg, Measured serum testosterone, mean, 168 h post-dose): 1.53 ng/mL | concentration at 504 h ([2]; human, in vivo, sc, 80 mg, Measured serum testosterone, mean, 504 h post-dose): 2.26 ng/mL | concentration at 1344 h ([2]; human, in vivo, sc, 80 mg, Measured serum testosterone, mean, 1344 h post-dose): 1.25 ng/mL | concentration at 1680 h [2, 5]: 1 ng/mL | concentration at 2016 h [2, 5]: 0.83 ng/mL | concentration at 1 h [2, 6]: 0.47 ng/mL | concentration at 2 h [2, 6]: 0.51 ng/mL | concentration at 4 h [2, 6]: 0.92 ng/mL | concentration at 1008 h ([2]; human, in vivo, sc, 80 mg, Measured serum testosterone, median, 1008 h post-dose): 1.4 ng/mL | concentration at 1680 h [2, 6]: 1 ng/mL | concentration at 2016 h [2, 6]: 0.85 ng/mL | Measured serum testosterone, mean ([2]; mean, pre-dose): 0.21 ng/mL | Measured serum testosterone, median ([2]; median, pre-dose): 0.19 ng/mL | average Cmax, serum testosterone ([2]; serum): 4.1 ng/mL | median Tmax for serum testosterone ([2]; serum, post-dose): 8 h | efficacy of high-testosterone treatment with CDK4/6 inhibitor (CRPC): enhanced by a CDK4/6 inhibitor | breast ductal structures (breast tissue): breast ductal structures shrunk

C[C@]12CCC(=O)C[C@@H]1CC[C@@H]1[C@@H]2CC[C@]2(C)[C@@H](O)CC[C@@H]12 [radioactive DHT]
accumulation of radioactive DHT (breast): initially accumulated in the fat of the breast then strongly accumulated in the malignancy
